Laboratory results: PubChem BioAssay AID651971 (The Scripps Research Institute Molecular Screening Center, 2013)
Activity calls are given as the source filed them. No rule for the calls is given here.

Target: methionyl-tRNA synthetase (Trypanosoma brucei brucei) (UniProt Q38C91)
Test: T. brucei MetRS inhibitors, dose response, biochemical, luminescence (AID 651971)
Conditions: recombinant T. brucei MetRS, luminescence (ATP consumption)

methionyl-tRNA synthetase (Trypanosoma brucei brucei), sequence (Q38C91 1-773): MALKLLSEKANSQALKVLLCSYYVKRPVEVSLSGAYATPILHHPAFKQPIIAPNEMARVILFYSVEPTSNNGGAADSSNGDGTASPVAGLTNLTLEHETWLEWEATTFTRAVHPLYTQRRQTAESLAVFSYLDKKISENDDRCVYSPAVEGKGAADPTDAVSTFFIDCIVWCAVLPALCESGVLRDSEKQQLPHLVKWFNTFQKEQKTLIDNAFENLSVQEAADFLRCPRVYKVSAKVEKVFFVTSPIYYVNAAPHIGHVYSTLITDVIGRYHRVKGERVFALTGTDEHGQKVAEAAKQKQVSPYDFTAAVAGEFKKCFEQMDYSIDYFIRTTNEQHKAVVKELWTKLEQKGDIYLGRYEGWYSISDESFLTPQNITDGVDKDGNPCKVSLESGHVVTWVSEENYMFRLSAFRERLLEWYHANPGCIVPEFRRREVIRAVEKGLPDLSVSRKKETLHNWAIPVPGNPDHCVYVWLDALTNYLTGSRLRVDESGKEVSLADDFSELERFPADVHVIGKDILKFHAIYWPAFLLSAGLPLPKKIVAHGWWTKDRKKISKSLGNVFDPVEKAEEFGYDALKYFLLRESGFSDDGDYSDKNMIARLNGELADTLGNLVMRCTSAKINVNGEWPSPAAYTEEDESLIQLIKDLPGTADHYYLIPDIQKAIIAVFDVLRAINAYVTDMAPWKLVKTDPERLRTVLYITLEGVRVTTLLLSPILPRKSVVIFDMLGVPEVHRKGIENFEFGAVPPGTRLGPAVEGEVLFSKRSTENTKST

`Cc1ccc(C(=O)Nn2c(O)c(C=C3N=c4ccccc4=N3)sc2=S)cc1` was tested, and the IC50 was > 119 µM (inactive).
